Test results as given in patent EP3227262B1, “SULFIDE ALKYL AND PYRIDYL REVERSE SULFONAMIDE COMPOUNDS FOR HBV TREATMENT” (Novira Therapeutics Inc., priority 2014, dated 2016).

What was measured:
HBV [1] = experiment: HBV replication inhibition assay (encapsidated HBV DNA in supernatant, bDNA QuantiGene); type: cell-based; conditions: Hepatitis B virus, 144 h, HepG2.2.15 cells, supernatant at day 6, read-out: Extra HBV DNA
HBV [2] = experiment: Inhibition of HBV replication dot-blot assay in HBV-producing hepatoma cell line; type: cell-based; conditions: Hepatitis B virus, 144 h; activity in Dot-Blot assay; HepG2-2.2.15 cells; reduction in HBV DNA levels, six days
Procedure: Compounds active in the HBV assembly assay are tested for their activity and toxicity in cellular assay. In the first anti-viral assay, the ability of compounds to inhibit HBV replication in an HBV-producing hepatoma cell line using the dot-blot method is evaluated.
(§1) Briefly, confluent monolayers of HepG2-2.2.15 cells are incubated with complete medium containing various concentrations of a test compound. Three days later, the culture medium is replaced with fresh medium containing the appropriately diluted test compound. Six days following the initial administration of the test compound, the cell culture supernatant is collected, and cell lysis is performed. The samples are applied onto Nylos membranes and DNA is immobilized to the membrane by UV cross-linking. After pre-hybridization, the HBV probe is added and the hybridization is performed overnight. The membranes are exposed to the KODAK films; antiviral activity is calculated from the reduction in HBV DNA levels (EC50). The EC50 for antiviral activity is calculated from the dose response curves of active compounds. Assay performance over time is monitored by the use of the standard positive control compounds ETV, BAY 41-4109, and HAP-1.
Selected compounds are tested for their activity and toxicity in cellular assay. In the first anti-viral assay, the ability of compounds to inhibit HBV replication in an HBV-producing hepatoma cell line using the dot-blot method is evaluated.
as §1, with “Confluent monolayers” for “Briefly, confluent monolayers”, “lysis was” for “lysis is”

Structure (SMILES)	EC50 (HBV [1])	EC50 (HBV [2])
O=C(Nc1cc(F)c(F)c(F)c1)c1ccc(F)c(SC2CCC(O)CC2)c1 (mixture of isomers) [Compound 10, (cis/trans)-4-Fluoro-3-((4-hydroxycyclohexyl)thio)-N-(3,4,5-trifluorophenyl)benzamide]	0.09 µM	< 10 µM
O=C(Nc1ccc(F)c(Cl)c1)c1ccc(F)c(SC2CCC(O)CC2)c1 (mixture of isomers) [Compound 24, (cis/trans)-N-(3-Chloro-4-fluorophenyl)-4-fluoro-3-((4-hydroxycyclohexyl)thio)benzamide]	0.042 µM	< 10 µM
O=C(Nc1cc(F)c(F)c(F)c1)c1ccc(F)c(SC2CCC(C(=O)O)CC2)c1 (mixture of isomers) [Compound 62, (cis/trans)-4-((2-Fluoro-5-((3,4,5-trifluorophenyl)carbamoyl)phenyl)thio)cyclohexanecarboxylic acid]	0.71 µM	< 10 µM
O=C(Nc1ccc(F)c(F)c1)c1ccc(F)c(SC2CCC(C(=O)O)CC2)c1 (mixture of isomers) [Compound 63, (cis/trans)-4-((S-((3,4-Difluorophenyl)carbamoyl)-2-fluorophenyl)thio)cyclohexanecarboxylic acid]	1.6 µM	< 10 µM
O=C(Nc1cc(F)c(F)c(F)c1)c1ccc(F)c(SC2CC3C(C2)C3C(=O)O)c1 (mixture of isomers) [Compound 98, (cis/trans)-3-((2-fluoro-5-((3,4,5-trifluorophenyl)carbamoyl)phenyl)thio)bicyclo[3.1.0]hexane-6-carboxylic acid]	1.3 µM	< 10 µM
CS(=O)(=O)NC(=O)C1C2CC(Sc3cc(C(=O)Nc4cc(F)c(F)c(F)c4)ccc3F)CC21 (mixture of isomers) [Compound 99, (cis/trans)-3-((2-Fluoro-5-((3,4,5-trifluorophenyl)carbamoyl)phenyl)thio)-N-(methylsulfonyl)bicyclo[3.1.0]hexane-6-carboxamide]	4 µM	< 10 µM
CC(O)CCSc1cc(C(=O)Nc2cc(F)c(F)c(F)c2)ccc1F (racemic) [Compound 18, (±)-4-Fluoro-3-((3-hydroxybutyl)thio)-N-(3,4,5-trifluorophenyl)benzamide]	0.57 µM	< 10 µM
O=C1CCCCC(Sc2cccc(C(=O)Nc3ccc(F)c(Cl)c3)c2)C1 (racemic) [Compound 38, (±)-N-(3-Chloro-4-fluorophenyl)-3-((3-oxocycloheptyl)thio)benzamide]	1.27 µM	
O=C(Nc1ccc(F)c(Cl)c1)c1cccc(S[C@H]2CCCC[C@@H](O)C2)c1 (racemic) [Compound 39A, (±)-N-(3-Chloro-4-fluorophenyl)-3-(((1S,3R)-3-hydroxycycloheptyl)thio)benzamide]	1.29 µM	
O=C(Nc1ccc(F)c(Cl)c1)c1cccc(S[C@@H]2CCCC[C@@H](O)C2)c1 (racemic) [Compound 39B, (±)-N-(3-Chloro-4-fluorophenyl)-3-(((1R,3R)-3-hydroxycycloheptyl)thio)benzamide]	1.29 µM	
O=C(Nc1ccc(F)c(Cl)c1)c1ccnc(NS(=O)(=O)C2CCC(O)C2)c1 (racemic) [Compound 186, (±)-N-(3-Chloro-4-fluorophenyl)-2-(3-hydroxycyclopentanesulfonamido)isonicotinamide]	2.7 µM	< 10 µM
O=C(Nc1cc(F)c(F)c(F)c1)c1ccc(F)c(SC2CCCCC2)c1 [Compound 2, 3-(Cyclohexylthio)-4-fluoro-N-(3,4,5-trifluorophenyl)benzamide]	0.138 µM	< 10 µM
O=C(Nc1cc(F)c(F)c(F)c1)c1ccc(F)c(SC2CCOCC2)c1 [Compound 4, 4-Fluoro-3-((tetrahydro-2H-pyran-4-yl)thio)-N-(3,4,5-trifluorophenyl)benzamide]	0.22 µM	< 10 µM
O=C(Nc1ccc(F)c(Cl)c1)c1cccc(SCCCO)c1 [Compound 40, N-(3-Chloro-4-fluorophenyl)-3-((3-hydroxypropyl)thio)benzamide]	0.76 µM	
O=C(Nc1ccc(F)c(Cl)c1)c1cc(NS(=O)(=O)C2CC2)ccn1 [Compound 126, N-(3-Chloro-4-fluorophenyl)-4-(cyclopropanesulfonamido)picolinamide]	1 µM	
O=C(Nc1ccc(F)c(Cl)c1)c1ccnc(NS(=O)(=O)c2cccs2)c1 [Compound 141, N-(3-Chloro-4-nuorophenyl)-2-(thiophene-2-sulfonamido)isonicotinamide]		< 10 µM
O=C(Nc1ccc(F)c(Cl)c1)c1cc(NS(=O)(=O)C2CC2)ncc1F [Compound 144, N-(3-Chloro-4-fluorophenyl)-2-(cyclopropanesulfonamido)-5-fluoroisonicotinamide]		< 10 µM

Structure (SMILES)	EC50 (HBV [1])	EC50 (HBV [2])
O=C(Nc1ccc(F)c(Cl)c1)c1cc(NS(=O)(=O)C2CC2)ncc1Cl [Compound 149, 5-Chloro-N-(3-chloro-4-fluorophenyl)-2-(cyclopropanesulfonamido)isonicotinamide]		< 10 µM
O=C(Nc1ccc(F)c(Cl)c1)c1ccnc(NS(=O)(=O)CC2CCCC2)c1 [Compound 150, N-(3-Chloro-4-fluorophenyl)-2-(cyclopentylmethylsulfonamido)isonicotinamide]		< 10 µM
Cc1ccc(CS(=O)(=O)Nc2cc(C(=O)Nc3ccc(F)c(Cl)c3)ccn2)cc1 [Compound 152, N-(3-Chloro-4-fluorophenyl)-2-(p-tolylmethylsulfonamido)isonicotinamide]		< 10 µM
CC(C)(C)S(=O)(=O)Nc1cc(C(=O)Nc2ccc(F)c(Cl)c2)ccn1 [Compound 154, N-(3-Chloro-4-fluorophenyl)-2-(1,1-dimethylethylsulfonamido)isonicotinamide]		< 10 µM
O=C(Nc1ccc(F)c(Cl)c1)c1ccnc(NS(=O)(=O)CC2(O)CCC2)c1 [Compound 155, N-(3-Chloro-4-fluorophenyl)-2-((1-hydroxycyclobutyl)methylsulfonamido) isonicotinamide]		< 10 µM
CC(C)(O)CS(=O)(=O)Nc1cc(C(=O)Nc2ccc(F)c(Cl)c2)ccn1 [Compound 156, N-(3-Chloro-4-fluorophenyl)-2-(2-hydroxy-2-methylpropylsulfonamido) isonicotinamide]		< 10 µM
CC(C)S(=O)(=O)Nc1cc(C(=O)Nc2ccc(F)c(Cl)c2)ccn1 [Compound 163, N-(3-Chloro-4-fluorophenyl)-2-(1-methylethylsulfonamido)isonicotinamide]		< 10 µM
CC(C)(C)CS(=O)(=O)Nc1cc(C(=O)Nc2ccc(F)c(Cl)c2)ccn1 [Compound 164, N-(3-Chloro-4-fluorophenyl)-2-(2,2-dimethylpropylsulfonamido)isonicotinamide]		< 10 µM
CC(C)S(=O)(=O)Nc1cc(C(=O)Nc2ccc(F)c(F)c2)ccn1 [Compound 165, N-(3,4-Difluorophenyl)-2-(1-methylethylsulfonamido)isonicotinamide]		< 10 µM
COc1ccc(CCS(=O)(=O)Nc2cc(C(=O)Nc3ccc(F)c(Cl)c3)ccn2)cc1 [Compound 173, N-(3-Chloro-4-fluorophenyl)-2-(2-(4-methoxyphenyl)ethylsulfonamido)isonicotinamide]		< 10 µM
Cc1cc(NC(=O)c2ccc(F)c(NS(=O)(=O)c3ccn(C)n3)c2)ccc1F [Compound 197, 4-fluoro-N-(4-fluoro-3-methylphenyl)-3-(1-methyl-1H-pyrazole-3-sulfonamido)benzamide]		< 10 µM
COCCS(=O)(=O)Nc1cccc(C(=O)Nc2ccc(F)c(Cl)c2)c1 [Compound 198, N-(3-chloro-4-fluorophenyl)-3-(2-methoxyethylsulfonamido)benzamide]		< 10 µM
O=C(Nc1ccc(F)c(Cl)c1)c1cccc(NS(=O)(=O)c2cccs2)c1 [Compound 199, N-(3-chloro-4-fluorophenyl)-3-(thiophene-2-sulfonamido)benzamide]		< 10 µM
O=C(Nc1ccc(F)c(Cl)c1)c1cccc(NS(=O)(=O)c2cn[nH]c2)c1 [Compound 200, N-(3-chloro-4-fluorophenyl)-3-(1H-pyrazole-4-sulfonamido)benzamide]		< 10 µM
Cc1n[nH]c(C)c1S(=O)(=O)Nc1cccc(C(=O)Nc2ccc(F)c(Cl)c2)c1 [Compound 201, N-(3-chloro-4-fluorophenyl)-3-(3,5-dimethyl-1H-pyrazole-4-sulfonamido)benzamide]		< 10 µM
O=C(Nc1ccc(F)c(Cl)c1)c1cccc(NS(=O)(=O)N2CCC(OCc3ccccc3)CC2)c1 [Compound 207, 3-(4-(benzyloxy)piperidine-1-sulfonamido)-N-(3-chloro-4-fluorophenyl)benzamide]		< 10 µM
